According to PubChem BioAssay AID1963833 (Molecular Pharmacology Branch, DTP, NCI, 2024):

Test system: 883617-216-R-J1-PDC complex spheroid viability
Assay: Anticancer human tumor 883617-216-R-J1-PDC patient-derived bladder carcinoma cell line growth inhibition [POLQ]
Conditions: for IC50: curve of first compound; for viability, T/C: stronger effect = lower value
How it was run: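 Growth inhibition in 3D: complex spheroids (tumor PDC, HUVEC, MSC) treated with POLQ inhibitor combinations; where Cmax unknown, highest tested concentration 10 microM, except SN-38 at 1 microM.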

[1] = second compound 0.0316 µM, first compound 0.0316 µM
[2] = second compound 0.0316 µM, first compound 0.1 µM
[3] = second compound 0.0316 µM, first compound 0.316 µM
[4] = second compound 0.0316 µM, first compound 1 µM
[5] = second compound 0.1 µM, first compound 0.0316 µM
[6] = second compound 0.1 µM, first compound 0.1 µM
[7] = second compound 0.1 µM, first compound 0.316 µM
[8] = second compound 0.1 µM, first compound 1 µM
[9] = second compound 0.316 µM, first compound 0.0316 µM
[10] = second compound 0.316 µM, first compound 0.1 µM
[11] = second compound 0.316 µM, first compound 0.316 µM
[12] = second compound 0.316 µM, first compound 1 µM
[13] = second compound 1 µM, first compound 0.0316 µM
[14] = second compound 1 µM, first compound 0.1 µM
[15] = second compound 1 µM, first compound 0.316 µM
[16] = second compound 1 µM, first compound 1 µM
[17] = second compound 3.16 µM, first compound 0.0316 µM
[18] = second compound 3.16 µM, first compound 0.1 µM
[19] = second compound 3.16 µM, first compound 0.316 µM
[20] = second compound 3.16 µM, first compound 1 µM
[21] = second compound 10 µM, first compound 0.0316 µM
[22] = second compound 10 µM, first compound 0.1 µM
[23] = second compound 10 µM, first compound 0.316 µM
[24] = second compound 10 µM, first compound 1 µM
[25] = second compound 0.0316 µM, first compound 3.16 µM
[26] = second compound 0.0316 µM, first compound 10 µM
[27] = second compound 0.1 µM, first compound 3.16 µM
[28] = second compound 0.1 µM, first compound 10 µM
[29] = second compound 0.316 µM, first compound 3.16 µM
[30] = second compound 0.316 µM, first compound 10 µM
[31] = second compound 1 µM, first compound 3.16 µM
[32] = second compound 1 µM, first compound 10 µM
[33] = second compound 3.16 µM, first compound 3.16 µM
[34] = second compound 3.16 µM, first compound 10 µM
[35] = second compound 10 µM, first compound 3.16 µM
[36] = second compound 10 µM, first compound 10 µM
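Also: spheroids exposed to compounds for seven days before readout.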
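For viability, T/C in this document: 100% = DMSO vehicle control viability.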

Compound `CCc1c2c(nc3ccc(O)cc13)-c1cc3c(c(=O)n1C2)COC(=O)[C@]3(O)CC` + COC1C(OC(N)=O)C(O)C(Oc2ccc3c(O)c(NC(=O)c4ccc(O)c(CC=C(C)C)c4)c(=O)oc3c2C)OC1(C)C has an IC50 (second compound 0.0316 µM) of 0.098 µM, an IC50 (second compound 0.1 µM) of 0.104 µM and an IC50 (second compound 0.316 µM) of 0.0602 µM. It also gave an IC50 (second compound 1 µM) of 0.0784 µM, an IC50 (second compound 3.16 µM) of 0.108 µM and an IC50 (second compound 10 µM) of 0.0995 µM. It also gave a viability, T/C (second compound 0.0316 µM, first compound 0.00316 µM) of 63.7%, a viability, T/C (second compound 0.0316 µM, first compound 0.01 µM) of 57.6% and a viability, T/C [1] of 67.5%. It also gave a viability, T/C [2] of 47.6%, a viability, T/C [3] of 33.5% and a viability, T/C [4] of 25.2%. It also gave a viability, T/C (second compound 0.1 µM, first compound 0.00316 µM) of 58.6%, a viability, T/C (second compound 0.1 µM, first compound 0.01 µM) of 59.3% and a viability, T/C [5] of 59.9%. It also gave a viability, T/C [6] of 49.7%, a viability, T/C [7] of 33.6% and a viability, T/C [8] of 20.7%. It also gave a viability, T/C (second compound 0.316 µM, first compound 0.00316 µM) of 70.1%, a viability, T/C (second compound 0.316 µM, first compound 0.01 µM) of 62.3% and a viability, T/C [9] of 55.1%. For the same compound, the viability, T/C [10] was 49.1%, the viability, T/C [11] was 31.6% and the viability, T/C [12] was 29.7%. For the same compound, the viability, T/C (second compound 1 µM, first compound 0.00316 µM) was 68.7%, the viability, T/C (second compound 1 µM, first compound 0.01 µM) was 59.2% and the viability, T/C [13] was 61.4%. The viability, T/C [14] was 46.9%, the viability, T/C [15] was 33.6% and the viability, T/C [16] was 21.1%. It also gave a viability, T/C (second compound 3.16 µM, first compound 0.00316 µM) of 66.8%, a viability, T/C (second compound 3.16 µM, first compound 0.01 µM) of 58% and a viability, T/C [17] of 60.2%. For the same compound, the viability, T/C [18] was 51.8%, the viability, T/C [19] was 35% and the viability, T/C [20] was 21.1%. It also gave a viability, T/C (second compound 10 µM, first compound 0.00316 µM) of 71%, a viability, T/C (second compound 10 µM, first compound 0.01 µM) of 56% and a viability, T/C [21] of 63.3%. It also gave a viability, T/C [22] of 46.2%, a viability, T/C [23] of 42% and a viability, T/C [24] of 21.7%.

With `COc1cc(C2c3cc4c(cc3C(OC3OC5COC(C)OC5C(O)C3O)C3COC(=O)C23)OCO4)cc(OC)c1O` (stereo not drawn) + COC1C(OC(N)=O)C(O)C(Oc2ccc3c(O)c(NC(=O)c4ccc(O)c(CC=C(C)C)c4)c(=O)oc3c2C)OC1(C)C the IC50 (second compound 0.0316 µM) was > 10 µM, the IC50 (second compound 0.1 µM) was > 10 µM and the IC50 (second compound 0.316 µM) was > 10 µM. For the same compound, the IC50 (second compound 1 µM) was > 10 µM, the IC50 (second compound 3.16 µM) was > 10 µM and the IC50 (second compound 10 µM) was > 10 µM. It also gave a viability, T/C [1] of 96.1%, a viability, T/C [2] of 90% and a viability, T/C [3] of 74.3%. The viability, T/C [4] was 61.8%, the viability, T/C [25] was 59.5% and the viability, T/C [26] was 51.7%. The viability, T/C [5] was 109%, the viability, T/C [6] was 89.6% and the viability, T/C [7] was 71.1%. For the same compound, the viability, T/C [8] was 69%, the viability, T/C [27] was 51.2% and the viability, T/C [28] was 59.3%. It also gave a viability, T/C [9] of 87%, a viability, T/C [10] of 90.2% and a viability, T/C [11] of 78.9%. The viability, T/C [12] was 72.2%, the viability, T/C [29] was 70.8% and the viability, T/C [30] was 51%. It also gave a viability, T/C [13] of 97%, a viability, T/C [14] of 89.5% and a viability, T/C [15] of 72.9%. The viability, T/C [16] was 57.9%, the viability, T/C [31] was 57.3% and the viability, T/C [32] was 48.9%. The viability, T/C [17] was 106%, the viability, T/C [18] was 92.1% and the viability, T/C [19] was 72.7%. It also gave a viability, T/C [20] of 65.7%, a viability, T/C [33] of 57.4% and a viability, T/C [34] of 52.7%. It also gave a viability, T/C [21] of 97.2%, a viability, T/C [22] of 95.4% and a viability, T/C [23] of 73%. It also gave a viability, T/C [24] of 59.8%, a viability, T/C [35] of 55.6% and a viability, T/C [36] of 53%.

Compound `CC1COCCN1c1cc(C2(O)CC3CCC(C2)O3)c2cnn(-c3ccn[nH]3)c2n1` (stereo not drawn) + COC1C(OC(N)=O)C(O)C(Oc2ccc3c(O)c(NC(=O)c4ccc(O)c(CC=C(C)C)c4)c(=O)oc3c2C)OC1(C)C has an IC50 (second compound 0.0316 µM) of 0.102 µM, an IC50 (second compound 0.1 µM) of 0.17 µM and an IC50 (second compound 0.316 µM) of 0.135 µM. It also gave an IC50 (second compound 1 µM) of 0.0906 µM, an IC50 (second compound 3.16 µM) of 0.135 µM and an IC50 (second compound 10 µM) of 0.107 µM. For the same compound, the viability, T/C [1] was 72.8%, the viability, T/C [2] was 49.2% and the viability, T/C [3] was 35.2%. It also gave a viability, T/C [4] of 34.4%, a viability, T/C [25] of 24.9% and a viability, T/C [26] of 21.8%. The viability, T/C [5] was 66.8%, the viability, T/C [6] was 56.8% and the viability, T/C [7] was 42.3%. The viability, T/C [8] was 27.6%, the viability, T/C [27] was 25% and the viability, T/C [28] was 21.8%. It also gave a viability, T/C [9] of 68.4%, a viability, T/C [10] of 53.1% and a viability, T/C [11] of 40.9%. For the same compound, the viability, T/C [12] was 27.7%, the viability, T/C [29] was 25.6% and the viability, T/C [30] was 21.7%. It also gave a viability, T/C [13] of 73.4%, a viability, T/C [14] of 45.2% and a viability, T/C [15] of 37.1%. For the same compound, the viability, T/C [16] was 30.7%, the viability, T/C [31] was 25.9% and the viability, T/C [32] was 22.3%. For the same compound, the viability, T/C [17] was 68.7%, the viability, T/C [18] was 52.4% and the viability, T/C [19] was 40.9%. For the same compound, the viability, T/C [20] was 32.4%, the viability, T/C [33] was 27.8% and the viability, T/C [34] was 21.3%. It also gave a viability, T/C [21] of 58.5%, a viability, T/C [22] of 52.5% and a viability, T/C [23] of 42.9%. The viability, T/C [24] was 31.2%, the viability, T/C [35] was 29.1% and the viability, T/C [36] was 23%.

`O=C(Nc1ccc(O)c(NS(=O)(=O)c2ccc(F)cc2)c1)c1ccc(-c2ccccc2)cc1` + COC1C(OC(N)=O)C(O)C(Oc2ccc3c(O)c(NC(=O)c4ccc(O)c(CC=C(C)C)c4)c(=O)oc3c2C)OC1(C)C was tested, and the IC50 (second compound 0.0316 µM) was > 10 µM, the IC50 (second compound 0.1 µM) was > 10 µM and the IC50 (second compound 0.316 µM) was > 10 µM. For the same compound, the IC50 (second compound 1 µM) was > 10 µM, the IC50 (second compound 3.16 µM) was > 10 µM and the IC50 (second compound 10 µM) was > 10 µM. For the same compound, the viability, T/C [1] was 95.1%, the viability, T/C [2] was 90.8% and the viability, T/C [3] was 83.6%. The viability, T/C [4] was 84.6%, the viability, T/C [25] was 95.9% and the viability, T/C [26] was 64.9%. It also gave a viability, T/C [5] of 81.6%, a viability, T/C [6] of 100% and a viability, T/C [7] of 81%. It also gave a viability, T/C [8] of 89.6%, a viability, T/C [27] of 81.3% and a viability, T/C [28] of 62.4%. For the same compound, the viability, T/C [9] was 88.1%, the viability, T/C [10] was 104% and the viability, T/C [11] was 83.8%. The viability, T/C [12] was 90.1%, the viability, T/C [29] was 89.5% and the viability, T/C [30] was 53.2%. It also gave a viability, T/C [13] of 86.4%, a viability, T/C [14] of 86.5% and a viability, T/C [15] of 93.3%. It also gave a viability, T/C [16] of 90.4%, a viability, T/C [31] of 81.7% and a viability, T/C [32] of 62.9%. It also gave a viability, T/C [17] of 88.9%, a viability, T/C [18] of 96.4% and a viability, T/C [19] of 97.3%. The viability, T/C [20] was 73.5%, the viability, T/C [33] was 77% and the viability, T/C [34] was 65.7%. It also gave a viability, T/C [21] of 103%, a viability, T/C [22] of 87.5% and a viability, T/C [23] of 98.3%. For the same compound, the viability, T/C [24] was 83.2%, the viability, T/C [35] was 89.7% and the viability, T/C [36] was 70.4%.
